According to patent EP0703904B1, “PYRIMIDINE CYANOGUANIDINES AS K-CHANNEL BLOCKERS” (priority 1993, dated 1994):

Assays:
[1] = molecular target: RMA K^+ Channel (Oryctolagus cuniculus, UniProt P82451+Q8WMQ7); assay: Inhibition of pinacidil-induced relaxation of norepinephrine-contracted isolated rabbit mesenteric artery (RMA) rings; format: cell-based; details: inhibitor 5 µM; pinacidil 1 µM; norepinephrine 5 µM contracted rings; mean ± sem; relaxation at 15 minutes versus control; number of rings in brackets; read-out: RMA K^+ Channel Antagonism % I at 5 µM
Procedure: The results for potassium channel blocking were obtained by using isolated rabbit mesenteric artery (RMA) procedures. Norepinephrine (5 µM) was used to contract the RMA rings twice, with an hour separating the two contractions. During this hour the tissues equilibrated in physiological salt solution at a resting tension of 1 gram. Upon the plateau of the second contraction 1 µM pinacidil was added to all tissues and the resulting relaxation time course was studied for thirty minutes. […] By studying the ability of the test compounds to inhibit this pinacidil-induced relaxation, the degree of potassium antagonism could be determined. The compounds were applied to the tissues for one hour between the two contractions and the pinacidil-induced relaxation was studied in the continuing presence of the compounds. Thus, the total time of pretreatment with the test compound was 75 minutes before the addition of pinacidil. […] The compounds were tested at 5 µM. The inhibitory effect of a compound was measured as percent inhibition of pinacidil relaxation at 15 minutes in comparison with the control.

[2] = system: female Harlan Sprague-Dawley rats; assay: Diuretic screen in rats: urinary Na^+ excretion; format: in vivo
Procedure: The diuretic activity was determined in female Harlan Sprague-Dawley rats weighing 200 to 230 grams that were fasted 15 hours overnight, and then were deprived of both food and water for an additional hour prior to dosing. […] It approximates the area under the dose response curve. The vehicle was 20% dimethylacetamide (DMA; v/v) in a pH 7.4 phosphate buffer (0.58% N2HPO4 and 0.13% NaH2PO4·H2O). Sufficient drug was suspended in 1 to 2 ml of this vehicle to deliver doses of 1.0 to 30 mg/kg in a volume of 0.5 ml (2-4 rats/dose). At least 2 vehicle control rats, and, for most tests, 2 standard diuretic treated rats were included in each experiment. Standards used as comparators included the K^+ retaining diuretic amiloride and tie K^+ wasting diuretics furosemide, hydrochlorothiazide and metolazone.
Following their IP doses, the rats' urinary bladders were gently compressed to eliminate all pretreatment urine, and two identically treated rats were placed in a stainless steel metabolism cage equipped with a graduated test tube to collect voided urine. At 2 and 5 hours post treatment, the rats' bladders were again compressed, the volume of urine excreted by the pair of rats was recorded, and aliquots of urine were retained for analysis of Na^+ and K^+ concentrations with a NOVA-13 selective ion analyzer. Following the 5 hour urine collection, the rats were returned to their stock cages, and at least 1 week of recovery was allowed between a maximum of 3 diuretic tests.
The electrolyte concentrations detected in these urine samples were manually mulliplied by their respective volumes to determine total milliequivalent (mEq) excretion of Na^+ and K^+ per pair of rats, and the results obtained with multiple racks per drug treatment were averaged. Increases in urinary Na^+ excretion of 50% or more above the pooled control tests were regarded as reflecting activity.

[3] = net increase above control in urinary Na^+ excretion over 5 hours divided by total of the three drug doses, administered IP

Chain of RMA K^+ Channel (P82451 whole entry): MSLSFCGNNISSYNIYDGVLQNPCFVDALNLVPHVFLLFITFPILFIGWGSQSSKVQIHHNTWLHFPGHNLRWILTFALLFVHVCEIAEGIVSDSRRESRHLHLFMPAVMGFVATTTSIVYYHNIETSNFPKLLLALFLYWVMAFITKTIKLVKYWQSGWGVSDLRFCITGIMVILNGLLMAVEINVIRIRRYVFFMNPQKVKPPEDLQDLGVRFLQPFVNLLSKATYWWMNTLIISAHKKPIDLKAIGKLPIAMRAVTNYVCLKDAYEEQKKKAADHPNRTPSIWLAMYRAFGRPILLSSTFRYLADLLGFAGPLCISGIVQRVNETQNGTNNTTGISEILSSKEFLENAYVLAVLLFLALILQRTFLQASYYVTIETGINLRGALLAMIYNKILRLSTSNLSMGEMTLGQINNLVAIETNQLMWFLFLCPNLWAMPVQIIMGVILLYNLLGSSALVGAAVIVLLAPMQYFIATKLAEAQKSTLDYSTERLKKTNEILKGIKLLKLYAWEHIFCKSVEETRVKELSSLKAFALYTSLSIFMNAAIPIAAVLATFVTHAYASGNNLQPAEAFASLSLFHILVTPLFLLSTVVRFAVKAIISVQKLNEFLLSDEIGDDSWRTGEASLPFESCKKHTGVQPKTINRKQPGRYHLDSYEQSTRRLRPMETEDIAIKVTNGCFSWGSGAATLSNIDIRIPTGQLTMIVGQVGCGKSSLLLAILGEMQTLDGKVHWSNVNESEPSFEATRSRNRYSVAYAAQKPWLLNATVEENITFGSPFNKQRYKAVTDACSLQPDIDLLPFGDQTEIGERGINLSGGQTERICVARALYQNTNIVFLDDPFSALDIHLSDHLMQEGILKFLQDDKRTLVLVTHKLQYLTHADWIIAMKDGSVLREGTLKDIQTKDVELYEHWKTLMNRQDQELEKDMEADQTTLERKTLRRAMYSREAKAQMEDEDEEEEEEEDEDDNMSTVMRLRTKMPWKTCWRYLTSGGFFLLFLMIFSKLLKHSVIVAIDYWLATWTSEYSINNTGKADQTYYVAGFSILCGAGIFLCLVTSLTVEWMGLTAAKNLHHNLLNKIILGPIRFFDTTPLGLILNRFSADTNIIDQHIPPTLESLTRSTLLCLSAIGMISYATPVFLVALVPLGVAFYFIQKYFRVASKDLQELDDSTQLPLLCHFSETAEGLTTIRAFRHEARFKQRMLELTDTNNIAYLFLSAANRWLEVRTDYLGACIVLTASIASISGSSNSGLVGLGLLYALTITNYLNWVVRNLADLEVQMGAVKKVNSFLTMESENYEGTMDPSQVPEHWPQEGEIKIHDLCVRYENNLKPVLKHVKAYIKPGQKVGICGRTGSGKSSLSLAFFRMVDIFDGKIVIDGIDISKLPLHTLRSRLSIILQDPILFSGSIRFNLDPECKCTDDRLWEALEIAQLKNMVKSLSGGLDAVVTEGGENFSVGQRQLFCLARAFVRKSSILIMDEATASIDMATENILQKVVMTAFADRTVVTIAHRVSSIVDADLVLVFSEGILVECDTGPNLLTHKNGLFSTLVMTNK
Chain of RMA K^+ Channel (Q8WMQ7 1-424): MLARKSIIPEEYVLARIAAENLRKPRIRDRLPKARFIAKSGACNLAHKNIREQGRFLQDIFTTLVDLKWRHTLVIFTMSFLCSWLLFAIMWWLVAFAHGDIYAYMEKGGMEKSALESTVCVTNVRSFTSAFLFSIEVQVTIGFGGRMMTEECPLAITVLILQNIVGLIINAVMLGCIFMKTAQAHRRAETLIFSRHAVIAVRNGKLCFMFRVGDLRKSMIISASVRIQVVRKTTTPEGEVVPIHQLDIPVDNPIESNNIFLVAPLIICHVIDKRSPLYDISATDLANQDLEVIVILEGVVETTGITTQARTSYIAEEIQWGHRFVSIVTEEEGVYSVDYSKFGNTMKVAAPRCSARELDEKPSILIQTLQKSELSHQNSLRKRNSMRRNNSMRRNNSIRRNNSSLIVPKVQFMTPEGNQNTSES

Compound | inhibition at 5 µM [1] [%] | 5 h Net Natriuretic Efficacy (µEq Na^+/mg/kg) [2, 3] [µEq Na^+/mg/kg] | 5 h Net Natriuretic Efficacy (µEq Na^+/mg/kg) ([2]; antidiuresis seen with 5 mg/kg oral dosage (footnote d))
N#CN=C(Nc1cnc(N)nc1)NC1(c2ccccc2)CCC1 [Example 2, N-(2-Amiro-5-pyrimidyl)N"-cyano-N'-(1-phenyl)cyclobutylguanidine] | 97 | 43 | –
N#CN=C(NCC(c1ccccc1)c1ccccc1)Nc1cccnc1 [Control] | 0 | 0.0 | –
CC(N/C(=N\C#N)Nc1ccncc1)C(C)(C)C (centres unmarked) [Pinacidil] | 0 | – | -60^d µEq Na^+/mg/kg
C[C@@H](NC(=NC#N)Nc1cncnc1)c1ccccc1 [Example 1, (R)-N"-Cyano-N-(5-pyrimidyl)-N'-(1-phenyl)ethylguanidine] | 81.7 ± 4.4 | 13.2 | –
